PubChem BioAssay AID1963848 (Molecular Pharmacology Branch, DTP, NCI, 2024)

Tested on: 379773-124-R-J2-PDC spheroid viability
Assay: Anticancer human tumor 379773-124-R-J2-PDC patient-derived endometrial carcinoma cell line growth inhibition [POLQ]
Settings: spheroids with HUVEC and MSC; for IC50: curve of first compound; for viability, T/C: stronger effect = lower value
Protocol: Multicellular complex tumor spheroid response to Polymerase (POL) inhibitors (novobiocin, ART-558, RP6685) in combination with a variety of drugs and investigational agents in selected tumor cell lines
The POL inhibitors (novobiocin, ART-558, and RP6685) were evaluated both individually and in combination with standard of care and investigational anticancer small molecules within a complex spheroid model of solid tumors. . Complex spheroids include a stromal component modeled by human endothelial cells (HUVEC) and fibroblasts modeled by human mesenchymal stem cells (MSCs). The concentration ranges selected for each drug and investigational agent were based upon clinically achievable concentrations if the clinical Cmax of the agent was known.
Compounds. The drugs and investigational agents: novobiocin (NSC847541), ART-558 (NSC835418), RP-6685 (NSC848927), peposertib (NSC802822), ceralasertib (NSC780249), elimusertib (NSC800525), camonsertib (NSC841442), AZD-1390 (NSC803789), olaparib (NSC753686), talazoparib (NSC767125), rucaparib (NSC756644), sotorasib (NSC818433), MRTX-1133 (NSC836407), SN-38 (NSC673596), topotecan (NSC609699), epotoside (NSC141540), doxorubicin (NSC123127), gemcitabine (NSC613327), 5-fluorouracil (NSC19893), paclitaxel (NSC125973), vemurafenib (NSC761431), MSA-2 (NSC828583), SN-011 (NSC837082), adavosertib (NSC754352), prexasertib (NSC758257), carboplatin (NSC241240) and oxaliplatin (NSC266046), were obtained from the National Cancer Institute (NCI) Developmental Therapeutics Program Chemical Repository (21). The FDA-approved anticancer drug set is available from the Developmental Therapeutics Program at https://dtp.cancer.gov/organization/dscb/obtaining/. […] The stock solutions were prepared in dimethyl sulfoxide (DMSO, Sigma-Aldrich, St. Louis, MO, cat. D2650), except for the platinum compounds which were prepared in saline (Quality Biological, Gaithersburg, MD, cat. 114-055-101), at 800-fold the tested concentration and stored at -70 degrees C prior to their use. All drugs and investigational agents were tested over a range starting from a high concentration at or near the clinical Cmax and decreasing in half-log increments. If the clinical Cmax for an agent had not been determined, the highest concentration tested was 10 microM, except for SN-38, which was tested at a high concentration of 1 microM.
Cell Culture. All cells were maintained in an incubator at 37 degrees C and 5% CO2 with 95% humidity. The PDC lines were cultured according to standard operating procedures established by the NCI PDMR (https://pdmr.cancer.gov). Table 3 of the manuscript, lists the cell lines along with the number of the three cell types plated to form the mct-spheroids and media for tumor cell growth. After thawing, all PDC lines, except 997537-175-T-J1-PDC and 415267-285-R-J2-PDC, were cultured in Matrigel-coated flasks prepared with a working solution of 1X Ham's F-12 nutrient mix, without supplementation (Thermo Fisher Scientific, cat. 11765054), 100 U/mL penicillin-streptomycin (Thermo Fisher Scientific, cat. 15140122), and 2.5% Matrigel (Corning Inc., Corning, NY, cat. 354248) for the first three passages. The two PDC lines 997537-175-T-J1-PDC and 415267-285-R-J2-PDC were cultured on uncoated flasks. The 857933-349-R-J2-PDC line was cultured in 6C/Colon 1B media containing advanced DMEM/F-12 (Thermo Fisher Scientific, cat. 12634028), 10 mM HEPES (Thermo Fisher Scientific, cat. 15630080), 1X GlutaMAX supplement (Thermo Fisher Scientific, cat. 35050061), 0.1 mg/mL primocin (InvivoGen, San Diego, CA, cat. ant-pm-2), 10% defined fetal bovine serum, heat inactivated (HyClone Laboratories Inc., Logan, UT, cat. SH30070.03HI), 50% L-WRN conditioned media (ATCC, cat. CRL-3276), 1.25 mM N-Acetyl-L-cysteine (Sigma-Aldrich, cat. A9165), 10 mM nicotinamide (Sigma-Aldrich, cat. N0636), 1X B-27 supplement (Thermo Fisher Scientific, cat. 17504044), 1X N-2 supplement (Thermo Fisher Scientific, cat. […]
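Further: spheroids exposed to drugs for seven days before readout.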
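Wherever viability, T/C is given: percent viability relative to DMSO vehicle control taken as 100%.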

Structure (SMILES): Cn1ncnc1[C@H]1c2n[nH]c(=O)c3cc(F)cc(c23)N[C@@H]1c1ccc(F)cc1 + COC1C(OC(N)=O)C(O)C(Oc2ccc3c(O)c(NC(=O)c4ccc(O)c(CC=C(C)C)c4)c(=O)oc3c2C)OC1(C)C
- IC50 (second compound 0.0316 µM): > 100 nM
- IC50 (second compound 0.1 µM): > 100 nM
- IC50 (second compound 0.316 µM): > 100 nM
- IC50 (second compound 1 µM): > 100 nM
- IC50 (second compound 3.16 µM): > 100 nM
- IC50 (second compound 10 µM): > 100 nM
- viability, T/C (second compound 0.0316 µM, first compound 0.000316 µM): 97.8%
- viability, T/C (second compound 0.0316 µM, first compound 0.001 µM): 82.9%
- viability, T/C (second compound 0.0316 µM, first compound 0.00316 µM): 99.7%
- viability, T/C (second compound 0.0316 µM, first compound 0.01 µM): 96.3%
- viability, T/C (second compound 0.0316 µM, first compound 0.0316 µM): 74%
- viability, T/C (second compound 0.0316 µM, first compound 0.1 µM): 56.1%
- viability, T/C (second compound 0.1 µM, first compound 0.000316 µM): 90.3%
- viability, T/C (second compound 0.1 µM, first compound 0.001 µM): 93.4%
- viability, T/C (second compound 0.1 µM, first compound 0.00316 µM): 110%
- viability, T/C (second compound 0.1 µM, first compound 0.01 µM): 87.2%
- viability, T/C (second compound 0.1 µM, first compound 0.0316 µM): 69.9%
- viability, T/C (second compound 0.1 µM, first compound 0.1 µM): 56.4%
- viability, T/C (second compound 0.316 µM, first compound 0.000316 µM): 91.4%
- viability, T/C (second compound 0.316 µM, first compound 0.001 µM): 78.5%
- viability, T/C (second compound 0.316 µM, first compound 0.00316 µM): 82.5%
- viability, T/C (second compound 0.316 µM, first compound 0.01 µM): 85.4%
- viability, T/C (second compound 0.316 µM, first compound 0.0316 µM): 74%
- viability, T/C (second compound 0.316 µM, first compound 0.1 µM): 66.2%
- viability, T/C (second compound 1 µM, first compound 0.000316 µM): 86.7%
- viability, T/C (second compound 1 µM, first compound 0.001 µM): 83.2%
- viability, T/C (second compound 1 µM, first compound 0.00316 µM): 85.2%
- viability, T/C (second compound 1 µM, first compound 0.01 µM): 92.3%
- viability, T/C (second compound 1 µM, first compound 0.0316 µM): 67.6%
- viability, T/C (second compound 1 µM, first compound 0.1 µM): 60.9%
- viability, T/C (second compound 3.16 µM, first compound 0.000316 µM): 86.6%
- viability, T/C (second compound 3.16 µM, first compound 0.001 µM): 89.3%
- viability, T/C (second compound 3.16 µM, first compound 0.00316 µM): 89.5%
- viability, T/C (second compound 3.16 µM, first compound 0.01 µM): 78.8%
- viability, T/C (second compound 3.16 µM, first compound 0.0316 µM): 83.3%
- viability, T/C (second compound 3.16 µM, first compound 0.1 µM): 56.1%
- viability, T/C (second compound 10 µM, first compound 0.000316 µM): 86%
- viability, T/C (second compound 10 µM, first compound 0.001 µM): 87%
- viability, T/C (second compound 10 µM, first compound 0.00316 µM): 89.3%
- viability, T/C (second compound 10 µM, first compound 0.01 µM): 76%
- viability, T/C (second compound 10 µM, first compound 0.0316 µM): 74%
- viability, T/C (second compound 10 µM, first compound 0.1 µM): 58.1%
